Data published in US20130116251A1, “Novel HSP90 Inhibitor” (Nippon Kayaku Kabushiki Kaisha, priority 2005, published 2013).

How the values were obtained:
[1] = system: HSP90 client protein ERα in MCF7 cells; assay: Measurement test for amount of HSP90 client protein ERα (Western blotting); assay type: cell-based; conditions: MCF7 cells treated 16 hours at 3-5 concentrations
Procedure: (§1) MCF7 cells (American Type Culture Collection, Rockville, Md.) were treated with the compounds of the present invention at various concentrations for 16 hours to confirm that the HSP90 inhibitors of the present invention induce a depression of intracellular concentration of the client protein or target polypeptide that bind to HSP90. The amount of the HSP90 client protein Her2 and ERα was evaluated by the Western blotting method.
(§2) One million cells were seeded in a 6 cm dish, and 24 hours later the compounds of the present invention (Example 1-2, Example 2-1, Example 2-13, Example 2-2, Example 3-4, Example 2-5, Example 3-16, Example 3-6, Example 2-7, Example 3-27, Example 2-10 and Example 3-18) were added. Cells treated with the compounds were washed, mixed with 150 μl of lysis buffer (RIPA, 150 mM NaCl, 1% NP40, 0.1% deoxycholate (sodium salt), 0.1% SDS, 1 mM EDTA, 10 mM Tris-HCl (pH 8.0)) and incubated at 4° C. for 30 minutes. The cell lysates were centrifuged (15,000 rpm, 20 minutes) and protein (20 μg) of the supernatant was subjected to SDS polyacrylamide gel electrophoresis (SDS-PAGE). After finishing the electrophoresis, proteins in the gel were transferred to a PVDF membrane. The membrane after the transfer was treated with a primary antibody against the HSP90 client protein (anti Her2 or anti ERa antibody, both from Santa Cruz Biotechnology, Santa Cruz, Calif.), then treated with secondary antibodies (anti-rabbit Ig, horse radish peroxidase conjugated F(ab′)2 fragment (derived from donkey): Amersham Biosciences, UK Limited, Buckinghamhshire, UK.) and then the amount of the client protein was detected as the intensity of chemiluminescence signal with a chemiluminescence reagent (ECL: Amersham Biosciences UK Limited, Buckinghamshire, UK).

Human lung cancer H460 = assay: Antitumor effect on nude mice transplanted with human lung cancer H460; assay type: in vivo; conditions: Table 9, tail vein, 5 days continuous, day 8, starting day = 1.0, control group 4.6 ± 3.1
Procedure: Antitumor Effect on Nude Mice Transplanted with Human Lung Cancer
Human lung cancer H460 tumor fragment, which had been passaged subcutaneously in nude mice, was made into about 3 mm fragment and transplanted subcutaneously to the back of nude mice using a trocar. When the tumor volume grew to about 50 mm^3 or above, the compound of the present invention was administered to the tail vein once a day for 5 or 7 days every day. The compound of the present invention was dissolved in DMSO, mixed with TWEEN 80, and then diluted with a 5% glucose injection solution and used. The vehicle of the compound was administered to the control group of OH-a01. The control groups in other experiments were not treated. The tumor volume was measured on the first administration day and on the evaluation day (7 or 8 days after the start of the administration), and the relative tumor volume of the evaluation day was obtained from the tumor volume on the first administration day. Further, the tumor volume was calculated by measuring the major axis (Lmm) and minor axis (Wmm) of the tumor and by the formula (L×W^2)/2.
Relative tumor volume represents the average relative tumor volume on day 7 after the start of the administration, assuming the tumor volume of the starting day is 1.0.
Relative tumor volume represents the average relative tumor volume on day 8 after the start of the administration, assuming the tumor volume of the starting day is 1.0.

[2] = system: Human breast cancer cells (MCF7); assay: Antiproliferative activity on MCF7 cells (methylene blue method); assay type: cell-based; conditions: Homo sapiens, MCF7, 72 h, MCF7 cells, 72 hours treatment, 660 nm absorbance after methylene blue staining; read-out: Antiproliferative activity IC50
rHSP90 = assay: HSP90 binding assay (BIACORE SPR; inhibition of binding between rHSP90 and fixed herbimycin A); conditions: concentration inhibiting binding between rHSP90 (50 μg/mL) and fixed herbimycin A by 50%, BIACORE-X SPR; read-out: HSP90 inhibitory activity IC50
[3] = system: HSP90 client protein Her2 in MCF7 cells; assay: Measurement test for amount of HSP90 client protein Her2 (Western blotting); assay type: cell-based; conditions: MCF7 cells treated 16 hours at 3-5 concentrations
Procedure: as §1, §2

## COc1ccc(-n2c(-c3cc(C(C)C)c(O)cc3O)n[nH]c2=O)cc1 [OH-a08, 5-(2,4-dihydroxy-5-isopropyl-phenyl)-4-(4-methoxy-phenyl)-2,4-dihydro-[1,2,4]triazol-3-one]
[1]
  amount of HSP90 client protein ERα: depression
other
  melting point: 272 °C (dec.)
Human lung cancer H460; 100 mg/kg/day
  Relative tumor volume (Average ± SD): 1.9 ± 1.0
Human lung cancer H460; 200 mg/kg/day
  Relative tumor volume (Average ± SD): 1.1 ± 0.3
[2]
  IC50: 11 nM
rHSP90
  IC50: 120 nM
[3]
  amount of HSP90 client protein Her2: depression
